Assay [1] addresses T1, thromboxane synthetase enzyme (Rattus norvegicus, UniProt P49430).
T1 construct: from tissue; host or cells: washed blood platelets from Okamoto-Aoki spontaneously hypertensive rats (SHR)
T1 sequence (P49430 1-533): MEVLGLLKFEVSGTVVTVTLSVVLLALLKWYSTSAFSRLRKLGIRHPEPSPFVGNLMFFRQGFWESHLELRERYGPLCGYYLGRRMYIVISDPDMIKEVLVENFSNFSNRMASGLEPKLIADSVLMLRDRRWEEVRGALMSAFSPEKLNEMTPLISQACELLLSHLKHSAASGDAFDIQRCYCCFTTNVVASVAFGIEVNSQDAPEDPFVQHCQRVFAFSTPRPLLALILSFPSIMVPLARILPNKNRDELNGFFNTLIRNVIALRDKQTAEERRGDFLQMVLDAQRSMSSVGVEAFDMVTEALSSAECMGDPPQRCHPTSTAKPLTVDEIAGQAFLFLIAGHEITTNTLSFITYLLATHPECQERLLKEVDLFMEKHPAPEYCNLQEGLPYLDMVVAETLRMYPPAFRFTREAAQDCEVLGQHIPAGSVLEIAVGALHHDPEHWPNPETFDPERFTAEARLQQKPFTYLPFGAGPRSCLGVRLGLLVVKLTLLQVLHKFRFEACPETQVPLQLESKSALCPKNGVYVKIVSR
In words: Inhibition of thromboxane (TXB2) formation in washed rat platelets, TXB2 radioimmunoassay. The class given is biochemical, Okamoto-Aoki spontaneously hypertensive rats (SHR). The settings on record: Concentration 1x10^-4M, platelet suspension incubated 10 minutes at 37 °C. As for the experimental part:
Under urethan anesthesia, […] of arterial blood from Okamoto-Aoki spontaneously hypertensive rats (SHR) (Taconic Farms, Germantown, NY) between 19 and 24 weeks in age is collected in one ml of 3.2% sodium citrate in a polystyrene tube. The blood is diluted with 3 ml of cold saline and centrifuged at room temperature for 15 minutes at 460xg. The platelet rich plasma (PRP) is separated. The platelets are isolated by centrifuging the PRP for 10 minutes at 1060xg and are washed in 4 ml of cold oxygenated Krebs phosphate buffer, pH 7.4. The chilled platelets, recovered from centrifuging at 800xg for 10 minutes, are resuspended in oxygenated Krebs phosphate buffer and diluted to contain 4.5-6.0 x 10⁴ platelets/µ1. The inhibition of thromboxane (TX) formation is studied by determining the concentration of thromboxane B₂ (TXB₂), the stable hydrolysis product of TXA₂. Assay samples, prepared on ice, contain 200 µ1 platelet suspension, 50 µ1 saline, and 50 µ1 vehicle (saline) or drug under study. The samples are incubated for 10 minutes at 37 °C in a metabolic shaker. The reaction is terminated by immersing the tubes in an ice bath and adding 50 µl of 0.5M citric acid. The samples are centrifuged for 10 minutes in a refrigerated centrifuge and the supernatants thus obtained are decanted and stored at -20 °C. The TXB₂ content for each sample is determined by a direct radioimmunoassay (RIA) utilizing a TXB₂ specific RIA kit purchased from New England Nuclear, Boston, MA and expressed as pg TXB₂ formed per minute per sample, from which the percent inhibition of TXB₂ formation is calculated.

Assay [2] concerns Male mice of the Swiss Webster Strain. Nature of the assay: Potassium chloride-induced arrhythmia in anesthetized mice (survival). In kind it is in vivo. To be noted: Mus musculus, iv, Dose = 10 mg/kg i.v.; potassium chloride 62.5 mg/kg i.v. bolus 5, 15 or 30 minutes after drug; observed 15 minutes; read-out: KCl #Mice Surviving #Mice Tested (converted). From the text: (§1) Intravenous administration of high doses of calcium or potassium chloride in animals produces cardiac arrhythmias, cardiac fibrillation and cardiac arrest. Any agent that can prevent these events is considered an antiarrhythmic/antifibrillatory agent. (Meth. and Find Exptl. Clin Pharmacol.2:223-252(1980); Pharmacol, Ther. 24:401-433 (1984); Experimental Cardiac and Antiarrhythmic Drugs, L. Szekeres and Gy. J. Dapp, Akademiai Kiado Preso, Budapest, 9-448 (1971).)
(§2) The method employed is as follows: Male mice of the Swiss Webster Strain (Charles River, Wilmington, MA) weighing 25-35 g are anesthetized with ethyl carbamate (urethan) (1.5g/kg body weight i.p.). A 25-gauge needle attached to PE-20 tubing is inserted into a caudal vein for drug administration. The lead II ECG is recorded by needle electrodes placed subcutaneously in the limbs. All data is collected on a Gould Brush recorder. Animals are observed 5 minutes before drug administration. A 5, 15, or 30 minute period following drug administration is allowed before the bolus injection of calcium chloride, 200 mg/kg i.v. or potassium chloride, 62.5 mg/kg i.v. Control mice receive 4 ml/kg of 0.9% sodium chloride i.v. Mice are observed an additional 15 minutes for arrhythmias, fibrillation, survival or death. Any compound at a dose of less than 20 mg/kg i.v. that protects 3 out of 6 mice from cardiac death in either the potassium or calcium chloride test, is considered active.

Assay [3] has the same test system. Nature of the assay: Calcium chloride-induced arrhythmia in anesthetized mice (survival). In kind it is in vivo. To be noted: Mus musculus, iv, Dose = 10 mg/kg i.v.; calcium chloride 200 mg/kg i.v. bolus 5, 15 or 30 minutes after drug; observed 15 minutes; read-out: CaCl2 #Mice Surviving #Mice Tested (converted).
Excerpt: as §1, §2

Structures can show the parent of a compound that is named as a salt.

As usually defined, the inhibition is the share of the control response that was lost under treatment. Higher therefore signals a response far below the control.

For the compound `Cc1cc(NCCCCc2cccnc2)nc2c(C)cccc12` [Example 107, 4,8-Dimethyl-N-[4-(3-pyridinyl)butyl]-2-quinolinamine], in assay [1], the inhibition at 100 µM was determined as 99%. The responders at 10 mg/kg in assay [2] was 83.3%; in assay [3], 0%. In turn, `c1ccc(-c2cc(NCCCCc3cccnc3)nc3ccccc23)cc1` [Example 110, 4-Phenyl-N-[4-(3-pyridinyl)butyl]-2-quinolinamine] showed an inhibition at 100 µM in assay [1] of 99%. On the same count and under the same terms, the result for `Cc1cccc2c(-c3ccccc3)cc(NCCCn3ccnc3)nc12` [Example 51, N-[3-(1H-Imidazol-1-yl)propyl]-8-methyl-4-phenyl-2-quinolinamine] reads 89%; that for `Cc1ccc(C#N)c(NCc2cccnc2)n1` [Example 91, 6-Methyl-2-[(3-pyridinylmethyl)amino]-3-pyridinecarbonitrile], 81%. For the compound `Cc1ccc(C#N)c(NCCC(C)n2ccnc2)n1` (stereo not drawn) [Example 85, 2-[[3-(1H-Imidazol-1-yl)butyl]amino]-6-methyl-3-pyridinecarbonitrile, dihydrochloride], the responders at 10 mg/kg in assay [2] was 83.3%; in assay [3] it was 33.3%. Take `Cc1cc(NCCCn2ccnc2)nc2nc(N)ccc12` [Example 34, N²-[3-(1H-Imidazol-1-yl)propyl]-4-methyl-1,8-naphthyridine-2,7-diamine]: in assay [1], at 100 µM the inhibition was 98%. Moreover, the responders at 10 mg/kg is 66.7% in assay [2] and 50% in assay [3]. With `O=[N+]([O-])c1cccnc1NCCCCc1ccncc1` [compound 100], in assay [1], testing at 100 µM gave an inhibition of 88%. Regarding `Cc1cc(C)c2ccc(NCCCn3ccnc3)nc2n1` [Example 24, N-[3-(1H-Imidazol-1-yl)propyl]-5,7-dimethyl-1,8-naphthyridin-2-amine, (E)-2-butenedioate (1:2)], in assay [1], at 100 µM the inhibition was 93%. Besides, the responders at 10 mg/kg in assay [2] is 100%; in assay [3], 16.7%. Regarding `N#Cc1ccc(NCCCn2ccnc2)nc1-c1cccc(C(F)(F)F)c1` [Example 71, 6-[[3-(1H-Imidazol-1-yl)propyl]amino]-2-[3-(trifluoromethyl)phenyl]-3-pyridinecarbonitrile, (E)-2-butenedioate (1:1)], testing at 100 µM in assay [1] gave an inhibition of 100%. The same measure, in the same setting: the result for `Cc1cc(C)c2ccc(NCCCCc3cccnc3)nc2n1` [Example 109, 5,7-Dimethyl-N-[4-(3-pyridinyl)butyl]-1,8-naphthyridin-2-amine,(E)-2-butenedioate (1:2)] reads 97%. Consider `Cc1ccc(C#N)c(NCC(C)Cn2ccnc2)n1` (stereo not drawn) [Example 84, 2-[[3-(1H-Imidazol-1-yl)-2-methylpropyl]amino] 6-methyl-3-pyridinecarbonitrile, dihydrochloride], for which the responders at 10 mg/kg in assay [2] is 83.3%; in assay [3], 50%. Compound `c1cnc2nc(NCCCn3ccnc3)ccc2c1` [Example 27, N-[3-(1H-Imidazol-1-yl)propyl]-1,8-naphthyridin-2-amine,(E)-2-butenedioate (1:2)] had an inhibition at 100 µM in assay [1] of 90%. In the case of `N#Cc1ccc(-c2cccc(C(F)(F)F)c2)nc1NCCCn1ccnc1` [Example 18, 2-[[3-(1H-Imidazol-1-yl)propyl]amino]-6-[3-(trifluoromethyl)phenyl]-3-pyridinecarbonitrile], the inhibition at 100 µM in assay [1] was 98%. The same measure, in the same setting: the result for `Clc1cccc(NCCCn2ccnc2)n1` [Example 47, 6-Chloro-N-[3-(1H-imidazol-1-yl)propyl]-2-pyridinamine] reads 91%; that for `CC(CCNc1nc2ccccc2c2ccccc12)n1ccnc1` (stereo not drawn) [Example 89, N-[3-(1H-Imidazol-1-yl)butyl]-6-phenanthridinamine], 98%. On to `Cc1cc(NCCc2cccnc2)nc2ccccc12` [Example 95, 4-Methyl-N-[2-(3-pyridinyl)ethyl]-2-quinolinamine,dihydrochloride], for which the figures for the responders at 10 mg/kg in assay [2] and in assay [3] were 66.7% and 16.7%, respectively. `c1ccc(-n2nc3ccc(NCCCn4ccnc4)nc3n2)cc1` [Example 56, N-[3-(1H-Imidazol-1-yl)propyl]-2-phenyl-2H-1,2,3-triazolo[4,5-b]pyridin-5-amine] had an inhibition at 100 µM in assay [1] of 95%. On the same count and under the same terms, as for `Cc1cccc2c(-c3ccccc3)cc(NCCCCc3cccnc3)nc12` [Example 111, 8-Methyl-4-phenyl-N-[4-(3-pyridinyl)butyl]-2-quinolinamine], the figure is 85%; as for `NC(=O)c1ccc(NCCCn2ccnc2)nc1` [Example 46, 6-[[3-(1H-Imidazol-1-yl)propyl]amino]-3-pyridinecarboxamide], 80%; as for `CC(=O)N(CCCn1ccnc1)c1cc(C)c2ccccc2n1` [Example 83, N-[3-(1H-Imidazol-1-yl)propyl]-N-(4-methyl-2-quinolinyl)acetamide,monoacetate], 90%. Turning to `Cc1ccc(C#N)c(NCc2ccncc2)n1` [Example 93, 6-Methyl-2-[(4-pyridinylmethyl)amino]-3-pyridinecarbonitrile], the inhibition at 100 µM in assay [1] stood at 86%. The same measure, in the same setting: as for `O=[N+]([O-])c1ccc(Cl)nc1NCCCn1ccnc1` [Example 57, 6-Chloro-N-[3-(1H-imidazol-1-yl)propyl]-3-nitro-2-pyridinamine, monohydrochloride], the figure is 94%; as for `N#Cc1ccc(NCCCn2ccnc2)nc1` [Example 45, 6-[[3-(1H-Imidazol-1-yl)propyl]amino]-3-pyridinecarbonitrile], 92%. Regarding `c1ccc(-c2cc(NCCCn3ccnc3)nc3ccccc23)cc1` [Example 44, N-[3-(1H-Imidazol-1-yl)propyl]-4-phenyl-2-quinolinamine], in assay [1], at 100 µM the inhibition was 100%. `N#Cc1ccc(-c2ccncc2)nc1NCCCn1ccnc1` [Example 52, 2-[[3-(1H-Imidazol-1-yl)propyl]amino]-6-(4-pyridinyl)-3-pyridinecarbonitrile] had an inhibition at 100 µM in assay [1] of 85%.

As to `Cc1ccc(C#N)c(NCCc2ccncc2)n1` [Example 97, 6-Methyl-2-[[2-(4-pyridinyl)ethyl]amino]-3-pyridinecarbonitrile, dihydrochloride], the responders at 10 mg/kg was 50% in assay [2] and 0% in assay [3]. As for `Cc1cccc(NCCCn2ccnc2)n1` [Example 10, N-[3-(1H-Imidazol-1-yl)propyl]-6-methyl-2-pyridinamine,(E)-2-butenedioate (2:3)], the responders at 10 mg/kg is 50% in assay [2] and 0% in assay [3]. Consider `CC(=O)N(CCCn1ccnc1)c1ccc([N+](=O)[O-])cn1` [Example 58, N-[3-(1H-Imidazol-1-yl)propyl]-N-(5-nitro-2-pyridinyl)acetamide], for which at 100 µM the inhibition in assay [1] was 83%.

Values taken from patent publication EP0446604A2, “Pyridine and related aza heterocycle derivatives as cardiovascular agents” (AMERICAN CYANAMID COMPANY, priority 1990, dated 1991).
